Measured values published in PMC4671089, “Enhanced Detection of Antigen-Specific CD4^+ T Cells Using Altered Peptide Flanking Residue Peptide–MHC Class II Multimers” (The Journal of Immunology Author Choice, 2015).
Read-outs that look alike come from different tables or passages of the source.

Assays:
[1] = test system: CD4+ T cells in DR1+ PBMCs ex vivo; format: cell-based, human
[2] = test system: HA1.7 TCR; test: Thermodynamic analysis (SPR, nonlinear van't Hoff) of HA1.7 TCR ligation; format: binding, human; conditions: HA1.7-DR1-Flu3, 298 K; Biacore T100; 10 serial dilutions of TCR at 5, 10, 15, 20, 25, 30°C; triplicate
Method: Thermodynamic analysis of HA1.7 TCR ligation to DR1-Flu3 was performed using a Biacore T100 (GE Healthcare) equipped with a CM5 sensor chip. Activation and pMHC-II loading were assessed as previously described ([40]). A total of 500 response units of biotinylated pMHC-II were immobilized to streptavidin, which was chemically linked to the chip surface. Equilibrium binding analysis was performed with 10 serial dilutions of the TCR individually injected at temperatures of 5, 10, 15, 20, 25, and 30°C. Experiments were performed in triplicate using a blank flow cell, A2-[…] and DR1-CLIP as negative controls in separate experiments. The binding response was determined by subtraction of the response measured on a negative control flow cell from the response measured on flow cells containing DR1-Flu3. Results were analyzed using BIAevaluation 3.1, Microsoft Excel, and Origin 6.1. The KD values were calculated using a nonlinear curve fit [y = (P1x)/(P2 + x)].

[3] = test system: Flu1 peptide-stimulated DR1+ PBMCs of donor 4 (CD4+ T cells); test: Dual multimer staining following PBMC culture; format: cell-based, human; conditions: dual stain 1 vs dual stain 2, donor 4
Method: (§1) Flu1 peptide–stimulated, precultured PBMCs (5 × 10^5) were transferred to a 96-well plate and washed with PBS. Cell pellets were resuspended in 25 nM […] dasatinib (Axon Medchem, Reston, VA) and incubated for 30 min at 37°C. For each multimer, 0.5 μg was added directly to the cell pellet before incubating for 20 min on ice in the dark. Where dual staining with both PE- and allophycocyanin-conjugated multimers was used, 0.5 μg each was mixed per sample prior to addition to the cell pellets. Cells were then washed twice with cold PBS, followed by Live/Dead aqua (Life Technologies) staining to exclude dead cells. Surface staining was subsequently performed in PBS, 2.5% FCS, and 5 mM EDTA (FACS buffer), with the following cell surface markers: CD3-PerCP-Cy5.5 (BD Biosciences), CD4–Brilliant Violet 421 (BioLegend), CD14-FITC (BioLegend), and CD19-FITC (BioLegend). Cells were incubated for 20 min at 4°C in the dark before resuspending in FACS buffer for acquisition on a FACSCanto II (BD Biosciences). Data were analyzed using FlowJo version 10 (Tree Star).

[4] = test system: Flu1 peptide-stimulated DR1+ PBMCs (CD4+ T cells); test: Multimer staining following PBMC culture; format: cell-based, human; conditions: four DR1+ donors, 12 d after HA306–318 stimulation
Method: as §1

[5] = test system: CD4+ T cell clone 2C5 spiked into PBMCs; test: Clone dilution assay; format: cell-based, human; conditions: 0.125 μg multimer/1 × 10^6 PBMCs
Method: PBMCs (2 × 10^6) were spiked at 1, 0.5, 0.25, 0.125, 0.0625, or 0.0312% with the CD4^+ T cell clone 2C5. Cell mixtures were then stained with 0.125 μg multimer/1 × 10^6 PBMCs and labeled with Abs as described in the previous section. Samples were acquired directly on a FACSCanto II flow cytometer (BD Biosciences) and analyzed using FlowJo software version 10 (Tree Star).

[6] = molecular target: 2C5 TCR; test: SPR equilibrium binding of 2C5 TCR to DR1-peptide; parameters: species or system human; conditions: 25°C; for Kd: SPR equilibrium binding, Biacore 3000, CM5 chip, biotinylated pMHC-II immobilized on streptavidin, 2C5 TCR injected in eight serial dilutions, 45 μl/min
Method: Binding analysis was performed using a Biacore 3000 (GE Healthcare) equipped with a CM5 sensor chip, as reported previously ([43], [44]). Between 200 and 400 response units of biotinylated pMHC-II was immobilized on streptavidin, which was chemically linked to the chip surface. pMHC-II was injected at a slow-flow rate (10 μl/min) to ensure uniform distribution on the chip surface. The 2C5 TCR was purified and concentrated to ∼100 μM on the day of analysis to minimize TCR aggregation. For equilibrium analysis, eight serial dilutions were carefully prepared and injected over the relevant sensor chip at a flow rate of 45 μl/min at 25°C. Results were analyzed using BIAevaluation 3.1, Microsoft Excel, and Origin 6.1. The KD values were calculated using a nonlinear curve fit [y = P1x/(P2 + x)].

[7] = test system: CD4+ T cell clone DC-C10; test: Multimer staining of CD4+ T cell clone DC-C10; format: cell-based, human; conditions: histograms, Fig. 6B
Method: (§2) Clonal CD4^+ T cells (1 × 10^5) specific for HA306–318 were resuspended with 1 μg DR1-Flu1 or DR1-Flu3 multimer and incubated for 20 min at 4°C ([45]). Cells were then washed twice with PBS, stained with Live/Dead fixable violet (ViViD; Invitrogen) for 10 min at room temperature and labeled with mouse anti-human CD4-allophycocyanin (BD Biosciences) for 20 min at 4°C. After two further washes in PBS, samples were acquired directly on a FACSCanto II flow cytometer (BD Biosciences). Data were analyzed using FlowJo software version 10 (Tree Star). All incubations with fluorochrome-conjugated pMHC-II multimers were performed in the dark.

[8] = test system: CD4+multimer+ T cells in PBMCs after influenza vaccination; format: cell-based, human
[9] = test system: CD4+ T cell clone DC-D8; test: Multimer staining of CD4+ T cell clone DC-D8; format: cell-based, human; conditions: histograms, Fig. 6C
Method: as §2

[10] = test system: CD4+ T cell clone 2C5 spiked at 1% into DR1+ PBMCs; test: Multimer dilution assay; format: cell-based, human
Method: Each multimer was serially diluted six times (1, 0.5, 0.25, 0.125, 0.0625, 0.0312, or 0.0156 μg with respect to the pMHC-II component) and used in a final volume of 20 μl to stain 1 × 10^6 DR1^+ PBMCs spiked at 1% with the CD4^+ T cell clone 2C5. After incubation for 20 min at 4°C, cells were washed twice in PBS, stained with Live/Dead fixable aqua (Invitrogen) for 10 min at room temperature and labeled with mouse anti-human CD3-FITC (Serotec), mouse anti-human CD4-allophycocyanin (BD Biosciences), mouse anti-human CD14–Pacific Blue (Invitrogen), and mouse anti-human CD19–Pacific Blue (Invitrogen) for 20 min at 4°C. After two further washes in PBS, samples were acquired directly on a FACSCanto II flow cytometer (BD Biosciences). Data were analyzed using FlowJo software version 10 (Tree Star).

[11] = test system: CD4+ T cell clone 2C5; test: pMHC-II multimer staining of CD4+ T cell clone 2C5; format: cell-based, human; conditions: DR1-Flu3 versus DR1-Flu1 multimer; 1 μg multimer, 1 × 10^5 cells, 20 min at 4°C
Method: as §2

[12] = test system: HA1.7, F11, and C6 TCRs; conditions: three TCRs HA1.7, F11, C6; presented by DR1; vs Flu1; cited from earlier work
[13] = test system: HA1.7 TCR; conditions: HA1.7-DR1-Flu1, 298 K, nonlinear regression of temperature vs free energy; previously published; cited from earlier work
Excerpt: FIGURE 1. The biophysical impact of altered C-terminal PFRs on TCR binding. SPR was used to determine equilibrium binding of the 2C5 TCR to DR1 complexed with either (A) native Flu1 (HA306−318, […]) or (B) altered Flu3 ([…]). (C) Previously published thermodynamic analysis of the HA1.7-DR1-Flu1 interaction ([40]). (D) HA1.7-DR1-Flu3 thermodynamic properties showing enthalpy (ΔH^o) and entropy (TΔS^o) at 298 K calculated by nonlinear regression of temperature (K) plotted against free energy (ΔG^o). TEXT PRINTED IN THE PICTURE: (A) 2C5-DR1-Flu1: KD = 30 ± 2 μM | (B) 2C5-DR1-F ...

[14] = test system: T cells of three DR1+ donors; test: IFN-γ ELISPOT; format: cell-based, human; conditions: all three donors; data not shown

Q: Which results are given for “PKYVKQNTLKLAR [DR1-Flu3, HLA-DR1 heterodimer complexed with altered Flu3 ([…]); monomer in SPR, fluorochrome-tagged multimer in staining]”?
A: MFI, fold higher than DR1-Flu1 [1]: 3 fold; proportion of CD4+ T cells stained compared with DR1-Flu1 multimer [1]: stained a higher proportion of CD4^+ T cells; TΔS° [2]: 20 kcal/mol; ΔH° [2]: 16.4 kcal/mol; detection of additional, presumably lower avidity, cells compared with DR1-Flu1 [3]: able to detect additional, presumably lower avidity, cells compared with DR1-Flu1; CD4+multimer+ population size and MFI compared with DR1-Flu1 multimer [4]: detected larger populations of CD4^+multimer^+ cells, with generally greater MFIs; ability to detect cognate CD4+ T cells across range of spiked frequencies ([5]; 2C5 spiked at 1 to 0.0312%, compared with DR1-Flu1): far superior ability to detect cognate CD4^+ T cells across the entire range of spiked frequencies; Kd [6]: 16 ± 2 µM; affinity of 2C5 TCR, fold stronger compared with wild-type C-terminal PFR sequence ([6]; SPR, vs DR1-Flu1): ~2 fold; staining of clone DC-C10 [7]: stained; population of CD4+ T cells identified compared with DR1-Flu1 multimer [8]: identified a larger population of CD4^+ T cells; staining of clone DC-D8 [9]: stained; identification of CD4+multimer+ population at 1 μg/1 × 10^6 PBMCs ([10]; PBMCs spiked at 1% with 2C5, 20 min at 4°C): enabled clear visualization and accurate enumeration; lowest multimer concentration with distinct staining ([10]; PBMCs spiked at 1% with 2C5, 20 min at 4°C, distinct staining at concentrations down to this value): 0.0312 μg/1 × 10^6 PBMCs; optimal quantity of multimer per stain ([10]; greatest shift in MFI while reducing potential nonspecific staining): 0.125 μg/1 × 10^6 PBMCs; mean fluorescence intensity (MFI) of staining of 2C5 clone [11]: A large increase in mean fluorescence intensity (MFI)

Q: Which binding affinity increase [12] does the source give for “PKYVKQNTLKLAR [Flu3, C-terminally modified variants of HA306−318 with Arg at P11 (Flu3, […])]” here?
A: ~2 fold

Q: With “PKYVKQNTLKLAT [DR1-Flu1, HLA-DR1 heterodimer complexed with native Flu1 (HA306−318, …); monomer in SPR, fluorochrome-tagged multimer in staining]” as the sequence, how does the “spiked frequency at which precise quantification was almost impossible” value ([5]; poor separation) read?
A: ≤ 0.25%

Q: What about the Kd [6] of the same sequence?
A: 30 ± 2 µM

Q: And the “staining of clone DC-C10” value [7]?
A: stained

Q: And the “TΔS°” value [13]?
A: 23.8 kcal/mol

Q: And the “ΔH°” value [13]?
A: 18 kcal/mol

Q: And the “staining of clone DC-D8” value [9]?
A: stained

Q: What about the “identification of cognate CD4+ T cells at lower reagent concentrations” value ([10]; below 1 μg/1 × 10^6 PBMCs, PBMCs spiked at 1% with 2C5) of the same sequence?
A: failed to identify cognate CD4^+ T cells

Q: Which “T cell responses in IFN-γ ELISPOT assays” value [14] does the source give for “PKYVKQNTLKLAT [Flu1, influenza HA306–318 (Flu1), …]” here?
A: robust T cell responses
